US20260022142A1, “MACROCYCLIC IMMUNOMODULATORS” (Bristol-Myers Squibb Company, priority 2022, published 2026)
Bridge positions count the residues as written; N and C are the ends. Square brackets hold non-standard residues; d marks the D form. Peptide text beside a SMILES is read from it. * marks the point of attachment. ξ: configuration not given here. Phe(4-CONH2) = NC(=O)c1ccc(C[C@H](N)C(=O)O)cc1; Phe(4-COOH) = N[C@@H](Cc1ccc(C(=O)O)cc1)C(=O)O; Bip = N[C@@H](Cc1ccc(-c2ccccc2)cc1)C(=O)O; Phe(4-CN) = N#Cc1ccc(C[C@H](N)C(=O)O)cc1; Phe(3-F) = N[C@@H](Cc1cccc(F)c1)C(=O)O; Phe(3-Me) = Cc1cccc(C[C@H](N)C(=O)O)c1; NH(CH2)12COOH = O=C(O)CCCCCCCCCCCCN*; Val(3-OH) = CC(C)(O)[C@H](N)C(=O)O; Pyrazinecarbonyl = O=C(c1cnccn1)*; hArg = N=C(N)NCCCC[C@H](N)C(=O)O; 4Pal = N[C@@H](Cc1ccncc1)C(=O)O; Cha = N[C@@H](CC1CCCCC1)C(=O)O; Cit = NC(=O)NCCC[C@H](N)C(=O)O; aThr = C[C@H](O)[C@H](N)C(=O)O; Thr(3ξ) = CC(O)[C@H](N)C(=O)O; 12Ado = NCCCCCCCCCCCC(=O)O; hSer = N[C@@H](CCO)C(=O)O; Carboxymethyl = O=C(O)C*; Orn = NCCC[C@H](N)C(=O)O; Aun = NCCCCCCCCCCC(=O)O; Dab = NCC[C@H](N)C(=O)O; Dap = NC[C@H](N)C(=O)O; AEEA = NCCOCCOCC(=O)O

Biological target: T1, PD-1/PD-L1 interaction (PE-labeled human PD-L1-Ig binding to Jurkat cell line over-expressing human PD-1) (Homo sapiens, UniProt Q15116)
T1 construct: expressed in transfected cells; host or cells: Jurkat
Assay: Jurkat-PD-1 Cell Binding High-Content Screening Assay (CBA)
Format: cell-based
Conditions: Jurkat cell line over-expressing human PD-1; PE-labeled PD-L1-Ig 20 nM final; read-out: Jurkat hPD1-PDL1 IC50
Outline: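 Read-out is high-content imaging of cell-bound phycoerythrin-tagged PD-L1-Ig on fixed, Hoechst-counterstained Jurkat cells that over-express human PD-1. Compound exposure lasts 2 h at 37° C before the labeled ligand (20 nM final) is added for a further hour.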

T1 sequence (Q15116 25-288): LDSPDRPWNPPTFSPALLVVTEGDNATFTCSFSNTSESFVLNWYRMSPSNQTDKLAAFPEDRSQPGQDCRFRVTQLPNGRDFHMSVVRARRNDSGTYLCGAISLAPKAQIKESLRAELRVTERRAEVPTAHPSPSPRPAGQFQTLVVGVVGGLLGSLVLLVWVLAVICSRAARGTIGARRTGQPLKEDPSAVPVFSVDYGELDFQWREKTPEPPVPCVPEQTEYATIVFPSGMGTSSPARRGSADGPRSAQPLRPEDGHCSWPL

| IC50 | SMILES |
| --- | --- |
| 20.5 nM | Cc1cccc(C[C@@H]2NC(=O)[C@H](CC(=O)O)NC(=O)[C@H](Cc3ccc(OCC(=O)O)cc3)NC(=O)[C@H](CCCNC(=O)c3cnccn3)NC(=O)CSC[C@@H](C(=O)N[C@@H](CCCN)C(=O)N[C@@H](CO)C(=O)NCCCCCCCCCCCC(=O)O)NC(=O)[C@H](C(C)O)NC(=O)[C@H](CCO)NC(=O)[C@H](CC3CCCCC3)NC(=O)[C@H](CCN)NC(=O)[C@@H](CC(C)C)NC(=O)[C@H](CCCN)NC(=O)[C@H](CCCNC(N)=O)NC(=O)[C@H](Cc3ccc(-c4ccccc4)cc3)NC(=O)[C@H](C(C)C)NC2=O)c1 (stereo partly drawn) [Compound 3583] ({CH2CO}-[Orn](Pyrazinecarbonyl)Y(Carboxymethyl)D[Phe(3-Me)]V[Bip][Cit][Orn][dL][Dab][Cha][hSer][Thr(3ξ)]C[Orn]S[12Ado]-OH; thioether N-14) |
| 29.9 nM | Cc1cccc(C[C@@H]2NC(=O)[C@H](CC(=O)O)NC(=O)[C@H](Cc3ccc(OCC(=O)O)cc3)NC(=O)[C@H](CCCCNC(=N)N)NC(=O)CSC[C@@H](C(=O)N[C@@H](CCN)C(=O)N[C@@H](CO)C(=O)NCCCCCCCCCCCC(=O)O)NC(=O)[C@H](C(C)O)NC(=O)[C@H](C(C)O)NC(=O)[C@H](CC3CCCCC3)NC(=O)[C@H](CCN)NC(=O)[C@@H](CC(C)C)NC(=O)[C@H](CCCN)NC(=O)[C@H](CCCNC(=N)N)NC(=O)[C@H](Cc3ccc(-c4ccccc4)cc3)NC(=O)[C@H](C(C)C)NC2=O)c1 (stereo partly drawn) [Compound 3537] ({CH2CO}-[hArg]Y(Carboxymethyl)D[Phe(3-Me)]V[Bip]R[Orn][dL][Dab][Cha][Thr(3ξ)][Thr(3ξ)]C[Dab]S[12Ado]-OH; thioether N-14) |
| 36.7 nM | Cc1cccc(C[C@@H]2NC(=O)[C@H](CC(=O)O)NC(=O)[C@H](Cc3ccc(O)cc3)NC(=O)[C@H](CC(N)=O)NC(=O)CSC[C@@H](C(=O)N[C@@H](CCN)C(=O)NCCCCCCCCCCC(=O)O)NC(=O)[C@@H](CCC(N)=O)NC(=O)[C@H](C(C)C)NC(=O)[C@H](CC(C)C)NC(=O)[C@H](CCN)NC(=O)[C@@H](CC(C)C)NC(=O)[C@H](CCCN)NC(=O)[C@H](CCCNC(N)=O)NC(=O)[C@H](Cc3ccc(-c4ccccc4)cc3)NC(=O)[C@H](C(C)C)NC2=O)c1 [Compound 2791] ({CH2CO}-NYD[Phe(3-Me)]V[Bip][Cit][Orn][dL][Dab]LV[dQ]C[Dab][Aun]-OH; thioether N-14) |
| 33.6 nM | CC(C)C[C@H]1NC(=O)[C@H](CCCN)NC(=O)[C@H](Cc2ccc(O)cc2)NC(=O)[C@H](Cc2ccc(-c3ccccc3)cc2)NC(=O)[C@H](C(C)C)NC(=O)[C@H](Cc2c[nH]c3ccccc23)NC(=O)[C@H](CC(=O)O)NC(=O)[C@H](Cc2ccc(OCC(=O)O)cc2)NC(=O)[C@H](CC(N)=O)NC(=O)CSC[C@@H](C(=O)N[C@@H](CCN)C(=O)NCCCCCCCCCCC(=O)O)NC(=O)[C@H](C(C)O)NC(=O)[C@H](C(C)C)NC(=O)[C@H](CC2CCCCC2)NC(=O)[C@H](CCN)NC1=O (stereo partly drawn) [Compound 3421] ({CH2CO}-NY(Carboxymethyl)DWV[Bip]Y[Orn][dL][Dab][Cha]V[Thr(3ξ)]C[Dab][Aun]-OH; thioether N-14) |
| 10.1 nM | Cc1cccc(C[C@@H]2NC(=O)[C@H](CC(=O)O)NC(=O)[C@H](Cc3ccc(OCC(=O)O)cc3)NC(=O)[C@H](CCCCNC(=N)N)NC(=O)CSC[C@@H](C(=O)NCC(=O)NCCOCCOCC(=O)N[C@@H](CCC(=O)O)C(=O)NCCCCCCCCCCCC(=O)O)NC(=O)[C@H](CO)NC(=O)[C@H](C(C)C)NC(=O)[C@H](CC3CCCCC3)NC(=O)[C@H](CCN)NC(=O)[C@@H](CC(C)C)NC(=O)[C@H](CCCN)NC(=O)[C@H](C(C)C)NC(=O)[C@H](Cc3ccc(-c4ccccc4)cc3)NC(=O)[C@H](C(C)C)NC2=O)c1 [Compound 3184] ({CH2CO}-[hArg]Y(Carboxymethyl)D[Phe(3-Me)]V[Bip]V[Orn][dL][Dab][Cha]VSCG[AEEA]E[12Ado]-OH; thioether N-14) |
| 13.2 nM | Cc1cccc(C[C@@H]2NC(=O)[C@H](CC(=O)O)NC(=O)[C@H](Cc3ccc(OCC(=O)O)cc3)NC(=O)[C@H](CN)NC(=O)CSC[C@@H](C(=O)N[C@@H](CCN)C(=O)NCCOCCOCC(=O)NCCCCCCCCCCC(=O)O)NC(=O)[C@H](CCC(=O)O)NC(=O)[C@H](C(C)C)NC(=O)[C@H](Cc3cccc(F)c3)NC(=O)[C@H](CCN)NC(=O)[C@@H](CC(C)C)NC(=O)[C@H](CCCN)NC(=O)[C@H](Cc3ccc(OCC(=O)O)cc3)NC(=O)[C@H](Cc3ccc(-c4ccccc4)cc3)NC(=O)[C@H](Cc3ccc(C(=O)O)cc3)NC2=O)c1 [Compound 1268] ({CH2CO}-[Dap]Y(Carboxymethyl)D[Phe(3-Me)][Phe(4-COOH)][Bip]Y(Carboxymethyl)[Orn][dL][Dab][Phe(3-F)]VEC[Dab][AEEA][Aun]-OH; thioether N-14) |
| 9.2 nM | Cc1cccc(C[C@@H]2NC(=O)[C@H](CC(=O)O)NC(=O)[C@H](Cc3ccc(OCC(=O)O)cc3)NC(=O)[C@H](Cc3ccc(C(N)=O)cc3)NC(=O)CSC[C@@H](C(=O)N[C@@H](CCN)C(=O)NCCCCCCCCCCC(=O)O)NC(=O)[C@H](CCC(N)=O)NC(=O)[C@H](C(C)(C)O)NC(=O)[C@H](CC3CCCCC3)NC(=O)[C@H](CCN)NC(=O)[C@@H](CC(C)C)NC(=O)[C@H](CCCN)NC(=O)[C@H](Cc3ccc(OCC(=O)O)cc3)NC(=O)[C@H](Cc3ccc(-c4ccccc4)cc3)NC(=O)[C@H](Cc3ccc(OCC(=O)O)cc3)NC2=O)c1 [Compound 2154] ({CH2CO}-[Phe(4-CONH2)]Y(Carboxymethyl)D[Phe(3-Me)]Y(Carboxymethyl)[Bip]Y(Carboxymethyl)[Orn][dL][Dab][Cha][Val(3-OH)]QC[Dab][Aun]-OH; thioether N-14) |
| 26.2 nM | Cc1cccc(C[C@@H]2NC(=O)[C@H](CC(=O)O)NC(=O)[C@H](Cc3ccc(OCC(=O)O)cc3)NC(=O)[C@H](Cc3ccncc3)NC(=O)CSC[C@@H](C(=O)N[C@@H](CCN)C(=O)NCCCCCCCCCCCCC(=O)O)NC(=O)[C@H](CO)NC(=O)[C@H](C(C)(C)O)NC(=O)[C@H](CC3CCCCC3)NC(=O)[C@H](CCN)NC(=O)[C@@H](CC(C)C)NC(=O)[C@H](CCCN)NC(=O)[C@H](Cc3ccc(OCC(=O)O)cc3)NC(=O)[C@H](Cc3ccc(-c4ccccc4)cc3)NC(=O)[C@H](Cc3ccc(OCC(=O)O)cc3)NC2=O)c1 [Compound 2224] ({CH2CO}-[4Pal]Y(Carboxymethyl)D[Phe(3-Me)]Y(Carboxymethyl)[Bip]Y(Carboxymethyl)[Orn][dL][Dab][Cha][Val(3-OH)]SC[Dab]-{NH(CH2)12COOH}; thioether N-14) |
| 4.9 nM | CC(=O)NCCCC[C@@H]1NC(=O)[C@H](Cc2ccc(-c3ccccc3)cc2)NC(=O)[C@H](C(C)C)NC(=O)[C@H](Cc2cccc(C)c2)NC(=O)[C@H](CC(=O)O)NC(=O)[C@H](Cc2ccc(OCC(=O)O)cc2)NC(=O)[C@H](C(C)O)NC(=O)CSC[C@@H](C(=O)N[C@H](CC(N)=O)C(=O)NCCCCCCCCCCC(=O)O)NC(=O)[C@H](C(C)O)NC(=O)[C@H](C(C)C)NC(=O)[C@H](CC2CCCCC2)NC(=O)[C@H](CCN)NC(=O)[C@@H](CC(C)C)NC(=O)[C@H](CCCN)NC1=O (stereo partly drawn) [Compound 3431] ({CH2CO}-[Thr(3ξ)]Y(Carboxymethyl)D[Phe(3-Me)]V[Bip]K(Ac)[Orn][dL][Dab][Cha]V[Thr(3ξ)]C[dN][Aun]-OH; thioether N-14) |
| 26.3 nM | Cc1cccc(C[C@@H]2NC(=O)[C@H](CC(=O)O)NC(=O)[C@H](Cc3ccc(OCC(=O)O)cc3)NC(=O)[C@H](CCCCNC(=N)N)NC(=O)CSC[C@@H](C(=O)NCCOCCOCC(=O)N[C@@H](CCCCN)C(=O)NCCCCCCCCCCC(=O)O)NC(=O)[C@H]([C@H](C)O)NC(=O)[C@H](C(C)C)NC(=O)[C@H](CC3CCCCC3)NC(=O)[C@H](CC(N)=O)NC(=O)[C@@H](CC(C)C)NC(=O)[C@H](CCCN)NC(=O)[C@H](C(C)C)NC(=O)[C@H](Cc3ccc(-c4ccccc4)cc3)NC(=O)[C@H](C(C)C)NC2=O)c1 [Compound 3162] ({CH2CO}-[hArg]Y(Carboxymethyl)D[Phe(3-Me)]V[Bip]V[Orn][dL]N[Cha]V[aThr]C[AEEA]K[Aun]-OH; thioether N-14) |
| 18.1 nM | Cc1cccc(C[C@@H]2NC(=O)[C@H](CC(=O)O)NC(=O)[C@H](Cc3ccc(OCC(=O)O)cc3)NC(=O)[C@H](CC(N)=O)NC(=O)CSC[C@@H](C(=O)N[C@@H](CCN)C(=O)NCCCCCCCCCCC(=O)O)NC(=O)[C@H](CCCNC(N)=O)NC(=O)[C@H](C(C)C)NC(=O)[C@H](CC3CCCCC3)NC(=O)[C@H](CCN)NC(=O)[C@@H](CC(C)C)NC(=O)[C@H](CCCN)NC(=O)[C@H](Cc3ccc(O)cc3)NC(=O)[C@H](Cc3ccc(-c4ccccc4)cc3)NC(=O)[C@H](C(C)C)NC2=O)c1 [Compound 3378] ({CH2CO}-NY(Carboxymethyl)D[Phe(3-Me)]V[Bip]Y[Orn][dL][Dab][Cha]V[Cit]C[Dab][Aun]-OH; thioether N-14) |
| 33.7 nM | CC(C)C[C@H]1NC(=O)[C@H](CCCN)NC(=O)[C@H](C(C)C)NC(=O)[C@H](Cc2ccc(-c3ccccc3)cc2)NC(=O)[C@H](C(C)C)NC(=O)[C@H](Cc2c[nH]c3ccccc23)NC(=O)[C@H](CC(=O)O)NC(=O)[C@H](Cc2ccc(OCC(=O)O)cc2)NC(=O)[C@H](CN)NC(=O)CSC[C@@H](C(=O)NCCOCCOCC(=O)N[C@H](CC(N)=O)C(=O)NCCCCCCCCCCC(=O)O)NC(=O)[C@H]([C@@H](C)O)NC(=O)[C@H](C(C)C)NC(=O)[C@H](CC2CCCCC2)NC(=O)[C@H](Cc2cnc[nH]2)NC1=O [Compound 1136] ({CH2CO}-[Dap]Y(Carboxymethyl)DWV[Bip]V[Orn][dL]H[Cha]VTC[AEEA][dN][Aun]-OH; thioether N-14) |
| 4.8 nM | Cc1cccc(C[C@@H]2NC(=O)[C@H](CC(=O)O)NC(=O)[C@H](Cc3ccc(OCC(=O)O)cc3)NC(=O)[C@H](CN)NC(=O)CSC[C@@H](C(=O)N[C@@H](CCN)C(=O)NCCOCCOCC(=O)NCCCCCCCCCCC(=O)O)NC(=O)[C@H](CCCN)NC(=O)[C@H](C(C)C)NC(=O)[C@H](CC3CCCCC3)NC(=O)[C@H](CCN)NC(=O)[C@@H](CC(C)C)NC(=O)[C@H](CCCN)NC(=O)[C@H](Cc3ccc(O)cc3)NC(=O)[C@H](Cc3ccc(-c4ccccc4)cc3)NC(=O)[C@H](Cc3ccc(C#N)cc3)NC2=O)c1 [Compound 2071] ({CH2CO}-[Dap]Y(Carboxymethyl)D[Phe(3-Me)][Phe(4-CN)][Bip]Y[Orn][dL][Dab][Cha]V[Orn]C[Dab][AEEA][Aun]-OH; thioether N-14) |
